Common to all, as to format: functional
Assay [1] can be described thus: The 50% cytotoxic concentration was calculated as the concentration of the drug that decreased the percentage of formazan produced in drug-treated,uninfected cells to 50% of that produced in drug free uninfected cells on serotype 14.
Assay [2] has as its target T1, Human rhinovirus A protease (Human rhinovirus sp.) (UniProt Q4U254).
T1 sequence (whole entry): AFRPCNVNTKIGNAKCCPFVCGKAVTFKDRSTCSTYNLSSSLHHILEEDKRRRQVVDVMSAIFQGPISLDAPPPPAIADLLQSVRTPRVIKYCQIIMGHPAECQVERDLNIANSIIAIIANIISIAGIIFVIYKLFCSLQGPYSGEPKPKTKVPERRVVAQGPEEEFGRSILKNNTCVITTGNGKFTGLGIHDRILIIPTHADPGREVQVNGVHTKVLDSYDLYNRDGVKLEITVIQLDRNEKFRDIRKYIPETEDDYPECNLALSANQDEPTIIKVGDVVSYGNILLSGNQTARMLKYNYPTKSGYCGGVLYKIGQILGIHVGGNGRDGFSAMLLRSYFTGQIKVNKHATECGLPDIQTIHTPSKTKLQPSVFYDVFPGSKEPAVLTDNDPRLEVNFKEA
As to the kind of experiment: The EC90 was calculated as the concentration of drug that increased the percentage of formazan production in drug treated, virus infected cells to 50% of that produced by drug free uninfected cells on human rhinovirus-1A.

The target in assay [3] is T1, Human rhinovirus A protease (Human rhinovirus sp.). Put plainly: The EC90 was calculated as the concentration of drug that increased the percentage of formazan production in drug treated, virus infected cells to 50% of that produced by drug free uninfected cells on human rhinovirus-14.
For assay [4] the target is unchanged. Put plainly: The EC90 was calculated as the concentration of drug that increased the percentage of formazan production in drug treated, virus infected cells to 50% of that produced by drug free uninfected cells on human rhinovirus-10.
Assay [5] shares this target. As to the kind of experiment: The EC90 was calculated as the concentration of drug that increased the percentage of formazan production in drug treated, virus infected cells to 50% of that produced by drug free uninfected cells on human rhinovirus-2.

For the compound `CCOC(=O)/C=C/[C@H](CCC(N)=O)NC(=O)[C@@H](CC(=O)[C@@H](NC(=O)SC1CCCC1)C(C)C)Cc1ccc(C)cc1`, in assay [1], the CC50 is over 100000 nM.

For `CCOC(=O)/C=C/[C@H](CCC(N)=O)NC(=O)[C@@H](CC(=O)[C@H](Cc1ccccc1)NC(=O)SC1CCCC1)Cc1ccc(C)cc1`, in assay [1], the cytotoxic concentration (CC50) was over 100000 nM.

With `CCOC(=O)/C=C/[C@H](CCC(N)=O)NC(=O)[C@@H](CC(=O)[C@@H](NC(=O)SC1CCCC1)C(C)C)Cc1ccc(F)cc1`, the concentration for an effect of 90% (EC90) is 200 nM in assay [2], 100 nM in assay [3], 250 nM in assay [4] and 250 nM in assay [5]. The CC50 in assay [1] was over 100000 nM.

Regarding `CCOC(=O)/C=C/[C@H](CCC(N)=O)NC(=O)[C@@H](CC(=O)[C@@H](NC(=O)SC1CCCC1)C(C)(C)C)Cc1ccccc1`, in assay [1], the cytotoxic concentration (CC50) was over 100000 nM.

Regarding `CCOC(=O)/C=C/[C@H](CCC(N)=O)NC(=O)[C@H](Cc1ccccc1)NC(=O)[C@H](CC(C)C)NC(=O)OCc1ccccc1`, the CC50 in assay [1] is over 320000 nM.

Regarding `CCOC(=O)/C=C/[C@H](CCC(N)=O)NC(=O)[C@@H](CC(=O)[C@@H](NC(=O)SC1CCCC1)C(C)C)Cc1ccc(C(F)(F)F)cc1`, the cytotoxic concentration (CC50) in assay [1] was over 100000 nM.

`CCOC(=O)/C=C/[C@H](CCC(N)=O)NC(=O)[C@@H](CC(=O)[C@@H](NC(=O)SC1CCCC1)C(C)C)Cc1ccccc1`: the half-maximal cytotoxic concentration (CC50) in assay [1] was over 100000 nM.

For `CCOC(=O)/C=C/[C@H](CCC(N)=O)NC(=O)[C@@H](CC(=O)[C@H](CC(C)C)NC(=O)SC1CCCC1)Cc1ccc(C)cc1`, in assay [1], the CC50 is over 100000 nM.

`CCOC(=O)/C=C/[C@H](CCC(N)=O)NC(=O)[C@@H](CC(=O)[C@H](CC(C)C)NC(=O)SC1CCCC1)Cc1ccccc1`: the CC50 in assay [1] was over 100000 nM.

Take `CCOC(=O)/C=C/[C@H](CCC(N)=O)NC(=O)[C@@H](CC(=O)[C@H](CC(C)C)NC(=O)OCc1ccccc1)Cc1ccccc1`: the CC50 in assay [1] is over 320000 nM.

Regarding `CCOC(=O)/C=C/[C@H](CCC(N)=O)NC(=O)[C@@H](CC(=O)[C@H](CC(C)C)NC(=O)SCc1ccccc1)Cc1ccccc1`, the CC50 in assay [1] is over 100000 nM.

Turning to `CCOC(=O)/C=C/[C@H](CCC(N)=O)NC(=O)[C@H](Cc1ccc(F)cc1)NC(=O)[C@@H](NC(=O)SC1CCCC1)C(C)C`, the EC90 in assay [2] is 2500 nM; in assay [3], 1800 nM; in assay [4] it was 2500 nM; in assay [5], 5400 nM.

Regarding `CCOC(=O)/C=C/[C@H](CCC(N)=O)NC(=O)[C@@H](CC(=O)[C@@H](NC(=O)SCc1ccccc1)C(C)C)Cc1ccccc1`, the CC50 in assay [1] is over 100000 nM.

Turning to `CCOC(=O)/C=C/[C@H](CCC(N)=O)NC(=O)[C@@H](CC(=O)[C@@H](NC(=O)c1cc(C)on1)C(C)C)Cc1ccc(F)cc1`, the EC90 was 320 nM in assay [3] and 790 nM in assay [4].

`CCOC(=O)/C=C/[C@H](CCC(N)=O)NC(=O)[C@@H](CC(=O)[C@H](Cc1ccccc1)NC(=O)SC1CCCC1)Cc1ccc(F)cc1`: the CC50 in assay [1] is over 100000 nM.

For the compound `CCOC(=O)/C=C/[C@H](CCC(N)=O)NC(=O)[C@@H](CC(=O)[C@H](CC(C)C)NC(=O)SC1CCCC1)Cc1ccc(F)cc1`, the CC50 in assay [1] is over 100000 nM.

The term CC50 denotes the concentration giving 50% cytotoxicity. Broadly, the EC90 is the point of the concentration-response curve where the effect stands at 90%.

These data come from ChEMBL document CHEMBL1132118, “Structure-based design, synthesis, and biological evaluation of irreversible human rhinovirus 3C protease inhibitors. 3. Structure-activity studies of ketomethylene-containing peptidomimetics” (J Med Chem, 1999).
